Patent publication US6040341A, “Compounds and their compositions having anti-inflammatory and anti-thrombotic activities” (Nicox S.A., priority 1995, dated 2000)
Like-named read-outs stand apart in the source and are kept apart here.

Columns and labels:
[1] = molecular target: T1, cyclooxygenases (Homo sapiens, UniProt P23219); assay: COX inhibition in human piastrines (Tromboxan B2 level); assay type: cell-based; conditions: for COX inhibition (%): 5.10^-5 M; for COX inhibition (%) / inhibition at 100 µM / inhibition at 10 µM: % referred to controls (adding of the aggregating substance only); for inhibition at 100 µM: 10^-4 M; for inhibition at 10 µM: 10^-5 M
T1 construct: endogenous in cells; host or cells: human platelets
T1 sequence (P23219 24-599): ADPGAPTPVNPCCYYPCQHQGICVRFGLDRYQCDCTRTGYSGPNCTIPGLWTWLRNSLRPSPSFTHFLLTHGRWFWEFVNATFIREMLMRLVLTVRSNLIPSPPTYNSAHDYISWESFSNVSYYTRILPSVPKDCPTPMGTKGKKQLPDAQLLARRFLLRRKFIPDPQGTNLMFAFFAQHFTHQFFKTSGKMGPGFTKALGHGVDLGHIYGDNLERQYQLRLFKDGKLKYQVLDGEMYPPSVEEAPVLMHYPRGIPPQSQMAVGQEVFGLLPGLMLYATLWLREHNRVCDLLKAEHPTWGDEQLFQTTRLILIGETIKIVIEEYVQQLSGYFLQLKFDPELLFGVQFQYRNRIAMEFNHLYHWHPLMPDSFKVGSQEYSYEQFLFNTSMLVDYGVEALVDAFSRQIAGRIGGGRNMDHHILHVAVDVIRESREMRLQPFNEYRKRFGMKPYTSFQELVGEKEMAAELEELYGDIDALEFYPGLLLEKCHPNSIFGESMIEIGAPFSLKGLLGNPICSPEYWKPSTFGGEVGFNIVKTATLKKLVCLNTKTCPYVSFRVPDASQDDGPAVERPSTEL
Description: (§1) For the in vitro tests (piastrinic tests) the nitroderivatives, 1 mmol, were dissolved in dimethylsulfoxide and then diluted according to the concentrations listed in the Table.
(§2) Aspirin ASA 30 mmols was dissolved in a mixture of etanol:H2 O in the range 1:10 by volume and then diluted according to the concentrations listed in the Table.
The inhibition activity of the cyclooxygenases was determined in human piastrines according to the method described by Patrono et al (Thrombosis Res. 17, 317, 1980). The enzimatic activity was expressed as level of Tromboxan B2 (TX B2) and measured in ng/ml.

[2] = test system: intestinal gastric mucose; assay: Gastric tolerability, oral, in the rat; assay type: in vivo; conditions: for Gastric tolerance: in vivo; for Gastric damage: oral
Description: In the in vivo studies (for example toxicity) the products obtained above were administered in form of suspension in carboxymethylcellulose 1-2% by weight.
The gastric tolerability was evaluated through oral subministration in the rat measuring the seriousness of the gastropathie induced according to the criterium indicated by Wallace et al. (Am. J. Physiol. 259, G642, 1990).

[3] = test system: human piastrines stimulated by arachidonic acid; assay: Anti-aggregating piastrinic activity, aggregation induced by arachidonic acid; assay type: cell-based; conditions: Platelet; for activity at 100 µM / activity at 10 µM: read-out: Piastrinic aggregation (%) induced by arachidonic acid
Description: as §1, §2

[4] = test system: human piastrines stimulated by trombin; assay: Anti-aggregating piastrinic activity, aggregation induced by trombin; assay type: cell-based; conditions: for activity at 1000 µM / activity at 100 µM / activity at 10 µM: read-out: Piastrinic aggregation (%) induced by trombin
Description: as §1, §2

[5] = test system: calcium concentration inside the piastrine; assay: Intracellular piastrinic calcium; assay type: cell-based; conditions: from 10^-5 to 10^-4 M
Description: as §1, §2
The effect of the compounds of the invention or comparison compounds on the calcium concentration inside the piastrine was measured according to the method of Pollock et al. (Biochem. J. 235, 869, 1986).

[6] = test system: piastrinic adhesion; assay: Piastrinic adhesion; assay type: cell-based; conditions: from 10^-5 to 10^-4 M
Description: as §1, §2
The inhibition activity of the piastrinic adhesion was evaluated according to the method described by Bellavite et al. (Anal. Biochem. 216, 444, 1994).

[7] = 10^-4 M, % referred to controls (adding of the aggregating substance only)
[8] = 10^-5 M, % referred to controls (adding of the aggregating substance only)
[9] = Homo sapiens, Platelet, 10^-4 M, % referred to controls (adding of the aggregating substance only)

Q: Which “COX inhibition (%)” value [1] does the source give for `CC(=O)Oc1ccccc1C(=O)OCCCCO[N+](=O)[O-]` [ANBE, 2-acetoxy-benzoate of (4-nitroxy)butyl] here?
A: The value was 70%.

Q: What about the inhibition at 100 µM [1] of the same compound?
A: The inhibition at 100 µM was 30%.

Q: And the inhibition at 10 µM [1]?
A: Its inhibition at 10 µM is 80%.

Q: And the Gastric tolerance [2]?
A: The Gastric tolerance was “very well tolerated in the gastric mucose”.

Q: What about the Gastric damage ([2]; 250-500 mg/Kg) of the same compound?
A: Its Gastric damage is “did not produce relevant damages”.

Q: What about the activity at 1000 µM ([3]; 10^-3 M, % referred to controls (adding of the aggregating substance only)) of the same compound?
A: The activity at 1000 µM was 20%.

Q: And the activity at 100 µM [3, 7]?
A: Its activity at 100 µM is 50%.

Q: What about the activity at 10 µM [3, 8] of the same compound?
A: The activity at 10 µM was 100%.

Q: What about the activity at 1000 µM ([4]; Homo sapiens, Platelet, 10^-3 M, % referred to controls (adding of the aggregating substance only)) of the same compound?
A: The activity at 1000 µM was 50%.

Q: And the activity at 100 µM [4, 9]?
A: The activity at 100 µM was 60%.

Q: For `CC(=O)Oc1ccccc1C(=O)O` [ASA, acetylsalicilic acid], which “COX inhibition (%)” value [1] is on record?
A: Its value is 3%.

Q: What about the inhibition at 100 µM [1] of the same compound?
A: The inhibition at 100 µM was 1%.

Q: And the Gastric damage ([2]; 50-100 mg/Kg)?
A: The Gastric damage was “severe damages”.

Q: What about the activity at 10 µM [3] of the same compound?
A: The activity at 10 µM was 40%.

Q: What about the activity at 100 µM [3] of the same compound?
A: Its activity at 100 µM is 0%.

Q: And the activity at 10 µM ([4]; Homo sapiens, Platelet)?
A: The activity at 10 µM was 100%.

Q: And the activity at 100 µM ([4]; Homo sapiens, Platelet)?
A: Its activity at 100 µM is 100%.

Q: And the activity at 1000 µM ([4]; Homo sapiens, Platelet)?
A: The activity at 1000 µM was 80%.

Q: Which “COX inhibition (%)” value [1] does the source give for `CC(=O)Oc1ccccc1C(=O)Oc1cccc(CO[N+](=O)[O-])c1` [ANMPE, 2-acetoxy-benzoate of (3-nitroxymetyhyl)fenyl] here?
A: The value was 2%.

Q: And the inhibition at 10 µM [1]?
A: The inhibition at 10 µM was 5%.

Q: What about the “COX inhibition, comparison in words” value ([1]; versus ASA and ANBE) of the same compound?
A: The value was “activities similar to ASA, but well higher with respect to ANBE”.

Q: And the Gastric tolerance [2]?
A: Its Gastric tolerance is “very well tolerated in the gastric mucose”.

Q: And the Gastric damage ([2]; 250-500 mg/Kg)?
A: The Gastric damage was “did not produce relevant damages”.

Q: What about the activity at 50 µM ([3]; 5.10^-5 M, % referred to controls (adding of the aggregating substance only)) of the same compound?
A: Its activity at 50 µM is 10%.

Q: What about the activity at 100 µM [3, 7] of the same compound?
A: The activity at 100 µM was 0%.

Q: And the activity at 10 µM [3, 8]?
A: The activity at 10 µM was 60%.

Q: What about the “Inhibition of intracellular piastrinic calcium” value [5] of the same compound?
A: The value was “efficient in inhibiting significantly and in a dose-dependent way”.

Q: What about the “Inhibition of piastrinic adhesion” value [6] of the same compound?
A: Its value is “efficient in inhibiting significantly and in a dose-dependent way”.

Q: And the activity at 50 µM ([4]; Homo sapiens, Platelet, 5.10^-5 M, % referred to controls (adding of the aggregating substance only))?
A: Its activity at 50 µM is 40%.

Q: And the activity at 100 µM [4, 9]?
A: Its activity at 100 µM is 0%.

Q: And the activity at 10 µM ([4]; Homo sapiens, Platelet, 10^-5 M, % referred to controls (adding of the aggregating substance only))?
A: The activity at 10 µM was 70%.

Q: What about the “Inhibition of piastrinic aggregation induced by trombin, comparison in words” value ([4]; versus ASA and ANBE) of the same compound?
A: Its value is “values surprisingly higher both with respect to ANBE and ASA”.
